Reference: patent US10987346B2, “Iloperidone for the treatment of schizophrenia” (Vanda Pharmaceuticals, Inc., priority 2015, dated 2021)

Experiments:
[1] = tested on: patients with schizophrenia; assay: Randomized withdrawal relapse-prevention study (NCT01291511): safety assessments; assay type: in vivo, human; conditions: for Patients with at least 1 TEAE: Full Analysis Population; for Primary Reason for Discontinuation: Abnormal Laboratory Value(s) / Primary Reason for Discontinuation: Abnormal Test Procedure Result(s) / Primary Reason for Discontinuation: Adverse Event(s) / Primary Reason for Discontinuation: Death: interim analysis population, % of discontinued
Text: Safety assessments included collection of adverse events (AEs), clinical laboratory evaluations, 12-lead electrocardiograms (ECGs), body weight, vital signs, Columbia Suicide Severity Rating Scale (C-SSRS), and movement disorder rating scales (Barnes Akathisia Scale [BAS], Abnormal Involuntary Movement Scale [AIMS], and Simpson Angus Scale [SAS]).
The safety population was defined for each study phase (Titration and Stabilization or Double-Blind Relapse Prevention). For each phase, the safety population included all patients who received at least 1 dose of study medication during the corresponding phase. Descriptive statistics by study phase for each of the safety assessments were calculated.

[2] = tested on: patients with schizophrenia; assay: Randomized withdrawal relapse-prevention study (NCT01291511): efficacy assessments; assay type: in vivo, human; conditions: for Avg Time to Relapse or Impending Relapse: full analysis population; for Hazard Ratio (95% CI): favoring iloperidone over placebo
Experimental: Study subjects were adults with schizophrenia who were first treated with open-label iloperidone 12 mg/day given as 6 mg BID and then stabilized for a further 14-24 weeks with a flexible-dose iloperidone regimen as per investigator judgment ranging between 8-24 mg/day daily dose (given BID). Subjects who remained clinically stable for at least 12 weeks entered the relapse prevention phase and were randomized 1:1 to either continue on the same flexible dose regimen of iloperidone or to withdraw from iloperidone to matched placebo in a double-blinded fashion. Subjects were followed for up to 26 weeks and were withdrawn upon showing signs of relapse or impending relapse. A pre-defined unblinded interim analysis (IA) was conducted utilizing a group sequential testing procedure with an O'Brien-Fleming stopping boundary after 68 relapse or impending relapse events were observed. The primary outcome was time-to-relapse or impending relapse with event criteria defined in the protocol prior to first subject enrollment.
A randomized, double-blind, placebo-controlled, parallel-group study (ClinicalTrials.gov identifier NCT01291511) was performed at 27 centers in the United States, 15 in India and 24 in Ukraine.
The study consisted of five phases, the first four of which are shown in FIG. 1: screening phase, open-label titration phase, open-label stabilization phase, double-blind randomized withdrawal phase, and open-label extension phase (not shown).
In the Open-Label Titration Phase, patients received iloperidone 1, 2, 4, 6, 6, 6, 6 mg twice daily on Days 1 through 7, respectively. All previous antipsychotic treatments were discontinued prior to, or within 4 days, after the first day of iloperidone treatment. If the Investigator felt that it was necessary to titrate down the previous antipsychotic medication, the dose reduction was to be done within the first 4 days initiating iloperidone treatment (i.e., previous medication fully discontinued by Day 4).
In the Open-Label Stabilization Phase, patients received flexible doses of iloperidone 4 to 12 mg twice daily (8 to 24 mg/day). Patients needed to be clinically stable for a minimum of 12 weeks prior to randomization.
In the Double-Blind Randomized Withdrawal Phase, patients were randomized to receive iloperidone or placebo. Patients randomized to iloperidone initially took the dose level being received during the last 4 weeks of the Stabilization Phase and then treated with flexible doses of iloperidone 4 to 12 mg twice daily (8 to 24 mg/day).
Patients needed to be clinically stable throughout the last 12 weeks of the Stabilization Phase to be eligible for randomization. “Clinically stable” adult outpatients were defined as: meeting DSM-IV criteria for schizophrenia, and remaining stable following 12 weeks of open-label treatment with flexible doses of iloperidone, being on an established dose of iloperidone that remained unchanged due to efficacy during the 4 weeks prior to randomization; PANSS total score ≤70 and CGI-S score ≤4; Score of ≤4 on each of the following individual PANSS items: P1 (delusion), P2 (conceptual disorganization), P3 (hallucinatory behavior), P6 (suspiciousness/persecution), P7 (hostility), or G8 (uncooperativeness); and no hospitalization or increase in level of care to treat exacerbations.
The primary efficacy endpoint was time to relapse or impending relapse. Relapse or impending relapse during the double-blind relapse prevention phase was defined as any of the following: hospitalization (voluntary or involuntary) due to worsening of schizophrenia; an increase (worsening) of the PANSS total score of ≥30% from randomization, confirmed at a second visit conducted with 1 to 7 days later; patient had clinically significant suicidal, homicidal, or aggressive behavior; CGI-I score of ≥6 (much worse) or 7 (very much worse) after randomization; or an increase in iloperidone dose or in need of additional antipsychotic treatment. […]

[3] = Double-Blind Relapse Prevention Phase, N = 151
[4] = Relapse Prevention Phase, end of the study
[5] = Titration and Stabilization Phase
[6] = Titration/Stabilization Phase, N = 629
[7] = end of Titration and Stabilization Phase

COc1cc(C(C)=O)ccc1OCCCN1CCC(c2noc3cc(F)ccc23)CC1 [iloperidone]
TEAE incidence: Dizziness [1, 3]: 4 (2.6) n (%)
TEAE incidence: Dry Mouth [1, 3]: 0 n (%)
TEAE incidence: Headache [1, 3]: 3 (2.0) n (%)
TEAE incidence: Insomnia [1, 3]: 3 (2.0) n (%)
TEAE incidence: Nausea [1, 3]: 2 (1.3) n (%)
TEAE incidence: Schizophrenia [1, 3]: 3 (2.0) n (%)
TEAE incidence: Somnolence [1, 3]: 2 (1.3) n (%)
TEAE incidence: Weight increased [1, 3]: 2 (1.3) n (%)
Patients with at least 1 TEAE [1, 3]: 60 (39.7) n (%)
changes in AIMS scores ([1]; Relapse Prevention Phase): No clinically meaningful changes
mean change from baseline in QTcF ([1]; Relapse Prevention Phase): 4.9 ms
most common SAE: schizophrenia ([1]; Relapse Prevention Phase): 1.3%
patients discontinued due to TEAEs ([1]; Relapse Prevention Phase): 6%
patients reporting akathisia as TEAE ([1]; Relapse Prevention Phase): 1%
patients reporting extrapyramidal disorder as TEAE ([1]; Relapse Prevention Phase): 1%
patients who experienced a SAE ([1]; Relapse Prevention Phase): 4%
patients who experienced a TEAE ([1]; Relapse Prevention Phase): 40%
patients in whom akathisia was absent (BAS) ([1]; Relapse Prevention Phase, at completion): 95%
mean change from baseline in weight [1, 4]: 0.02 kg
patients with ≥7% increase in weight from baseline [1, 4]: 38%
waist circumference versus placebo [1, 4]: no notable differences
Primary Reason for Discontinuation: Abnormal Laboratory Value(s) ([1]; Relapse Prevention Phase): 3 (13) n (%)
Primary Reason for Discontinuation: Abnormal Test Procedure Result(s) ([1]; Relapse Prevention Phase): 1 (4) n (%)
Primary Reason for Discontinuation: Adverse Event(s) ([1]; Relapse Prevention Phase): 3 (13) n (%)
Primary Reason for Discontinuation: Death ([1]; Relapse Prevention Phase): 1 (4) n (%)
changes in Abnormal Involuntary Movement Scale (AIMS) scores [1, 5]: No clinically meaningful changes
discontinuation due to TEAE: QT prolongation [1, 5]: 1.1%
discontinuation due to TEAE: dizziness [1, 5]: 1.4%
discontinuation due to TEAE: schizophrenia [1, 5]: 1.9%
mean change from baseline in QTcF [1, 5]: 6.4 ms
most common SAE: schizophrenia [1, 5]: 1.4%
patients discontinued due to TEAEs [1, 5]: 15%
patients reporting akathisia as TEAE [1, 5]: 4%
patients reporting extrapyramidal disorder as TEAE [1, 5]: 3%
patients who experienced a SAE [1, 5]: 4%
patients who experienced a Treatment-Emergent Adverse Event (TEAE) [1, 5]: 69%
patients who died while receiving iloperidone ([1]; Titration and Stabilization Phase, one patient, alcohol poisoning): 0.2%
TEAE incidence: Dizziness [1, 6]: 73 (11.6) n (%)
TEAE incidence: Dry Mouth [1, 6]: 43 (6.8) n (%)
TEAE incidence: Headache [1, 6]: 40 (6.4) n (%)
TEAE incidence: Insomnia [1, 6]: 35 (5.6) n (%)
TEAE incidence: Nausea [1, 6]: 32 (5.1) n (%)
TEAE incidence: Schizophrenia [1, 6]: 15 (2.4) n (%)
TEAE incidence: Somnolence [1, 6]: 52 (8.3) n (%)
TEAE incidence: Weight increased [1, 6]: 34 (5.4) n (%)
Patients with at least 1 TEAE [1, 6]: 433 (68.8) n (%)
Primary Reason for Discontinuation: Abnormal Laboratory Value(s) ([1]; Titration/Stabilization Phase): 19 (8) n (%)
Primary Reason for Discontinuation: Abnormal Test Procedure Result(s) ([1]; Titration/Stabilization Phase): 5 (2) n (%)
Primary Reason for Discontinuation: Adverse Event(s) ([1]; Titration/Stabilization Phase): 80 (32) n (%)
Primary Reason for Discontinuation: Death ([1]; Titration/Stabilization Phase): 1 (<1) n (%)
mean change from baseline in weight [1, 7]: 0.5 kg
patients in whom akathisia was absent (Barnes Akathisia Scale) [1, 7]: 97%
patients with ≥7% increase in weight from baseline [1, 7]: 17%
QTcF prolongation in relation to dose/exposure ([1]; longer-term trial, higher exposures associated with more QT prolongation): dose-dependent
adverse events during maintenance period ([1]; patients administered 16 mg/day or less): reduction in adverse events
most common adverse events suspected to be related to iloperidone ([1]; stabilization phase): dizziness, somnolence and dry mouth
patients with elevations in LDL ([1]; versus none on placebo): 2.6%
patients with elevations in blood urea nitrogen (BUN) ([1]; versus none on placebo): 4.5%
Avg Time to Relapse or Impending Relapse ([2]; 8 mg/d, n=18): <30 days
Avg Time to Relapse or Impending Relapse ([2]; 12 mg/d, n=58): >120 days
Avg Time to Relapse or Impending Relapse ([2]; 20 mg/d, n=14): >120 days
Average Time to Relapse ([2]; Final (FAS)): 140 days
Relapse Rate ([2]; Final (FAS) (N = 151)): 17.9%
Hazard Ratio (95% CI) ([2]; Final (FAS)): 5.2
Hazard Ratio (95% CI) ([2]; Final (FAS), listed as Iloperidone): 5.2 (3.2, 8.4)
Relapse Rate ([2]; Interim Analysis Population (N = 97)): 20.4%
Hazard Ratio (95% CI) ([2]; Interim Analysis Population, Cox regression): 4.7
Hazard Ratio (95% CI) ([2]; Interim Analysis Population, Cox regression, listed as Iloperidone): 4.7 (2.7, 8.3)
Average Time to Relapse ([2]; Interim Analysis Population, KM estimates): 139 days
CGI-I outcome in the majority of patients ([2]; Relapse Prevention Phase): showed improvement
adjusted mean CGI-I score ([2]; Relapse Prevention Phase, LOCF): 3.3
adjusted mean change from randomization baseline at endpoint in PANSS total score ([2]; Relapse Prevention Phase, LOCF): 2.3 points
mean improvement on the PANSS total score ([2]; during Titration and Stabilization Phase, patients randomized in the IA (N=195)): −19.5±10.1 points
time to relapse compared with placebo (FIG. 2) ([2]; interim analysis population, Kaplan-Meier): statistically significant longer time to relapse
estimated relapse rate at the end of the double-blind relapse prevention phase (KM est.) ([2]; interim analysis, flexible dose 8-24 mg/day): 20.4%
